Experimental data published in US7626021B2, “Fused ring heterocycle kinase modulators” (SGX Pharmaceuticals, Inc., priority 2004, dated 2009).

Biological target: T1, Abl Y393F (Mus musculus, UniProt P00520, Y393F)
T1 construct: 0.4 μg/ml Abl kinase domain; Met-Ser-Leu (vector-derived) (N); made in house
T1 sequence (P00520 242-493 Y393F limits assumed): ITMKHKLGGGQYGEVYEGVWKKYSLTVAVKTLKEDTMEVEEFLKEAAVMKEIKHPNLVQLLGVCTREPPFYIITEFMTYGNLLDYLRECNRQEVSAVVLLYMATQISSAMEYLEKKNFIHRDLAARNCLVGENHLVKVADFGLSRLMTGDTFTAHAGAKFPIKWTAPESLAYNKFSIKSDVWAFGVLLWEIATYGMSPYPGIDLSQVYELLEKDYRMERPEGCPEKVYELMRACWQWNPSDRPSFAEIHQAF
Test: Abl Y393F kinase enzyme assay
Format: biochemical
Details: read-out: Abl_Y393F IC50
Source text: Although the first of these examples uses the kinase domain of a mutant form of Abl T315I (“Abl T315I KD”), the kinase assays may use various forms of mutant and wild type enzymes, including, for example, the entire protein, the kinase domain, or a portion thereof (e.g. Abl Y393F). The kinases used in the assays may also be of varying phosphorylation states. In the c-Abl example, a mutant kinase at a zero phosphorylation state was used.
In addition to the c-Abl PK/LDH coupled assay (above), homogeneous luminescence-based inhibitor screening assays were developed for c-Abl, MET, AurA, and PDK1 kinases (among others). Each of these assays made use of an ATP depletion assay (Kinase-Glo™, Promega Corporation, Madison, Wis.) to quantitate kinase activity. The Kinase-Glo™ format uses a thermostable luciferase to generate luminescent signal from ATP remaining in solution following the kinase reaction. The luminescent signal is inversely correlated with the amount of kinase activity.
cAbl Luminescence-Based Enzyme Assay
Materials: Abl substrate peptide=EAIYAAPFAKKK SEQ ID NO:1)-OH (Biopeptide, San Diego, Calif.), ATP (Sigma Cat#A-3377, FW=551), HEPES buffer, pH 7.5, Bovine serum albumin (BSA) (Roche 92423420), MgCl2, Staurosporine (Streptomyces sp. Sigma Cat#85660-1MG), white Costar 384-well flat-bottom plate (VWR Cat#29444-088), Abl kinase (see below), Kinase-Glo™ (Promega Cat#V6712).
Stock Solutions: 10 mM Abl substrate peptide (13.4 mg/ml in miliQH2O) stored at −20° C.; 100 mM HEPES buffer, pH 7.5 (5 ml 1M stock+45 ml miliQH2O); 10 mM ATP (5.51 mg/ml in dH2O) stored at −20° C. (diluted […] into total of 10 ml miliQH2O daily=50 μM ATP working stock); 1% BSA (1 g BSA in 100 ml 0.1 M HEPES, pH 7.5, stored at −20° C.), 100 mM MgCl2; 200 μM Staurosporine, 2× Kinase-Glo™ reagent (made fresh or stored at −20° C.).
Standard Assay Setup for 384-well format (20 μl kinase reaction, 40 μl detection reaction): 10 mM MgCl2; 100 μM Abl substrate peptide; 0.1% BSA; 1 μl test compound (in DMSO); 0.4 μg/ml Abl kinase domain; 10 μM ATP; 100 mM HEPES buffer. Positive controls contained DMSO with no test compound. Negative controls contained 10 μM staurosporine. The kinase reactions were initiated at time t=0 by the addition of ATP. Kinase reactions were incubated at 21° C. for 30 min, then 20 μl of Kinase-Glo™ reagent were added to each well to quench the kinase reaction and initiate the luminescence reaction. After a 20 min incubation at 21° C., the luminescence was detected in a plate-reading luminometer.

IC50 [µM] | Compound
< 1 | O=C(c1cccc(-c2cnc3[nH]nc(-c4ccncc4Cl)c3c2)c1)N1CCOCC1
< 1 | COc1ccccc1-c1n[nH]c2ncc(-c3cccc(S(=O)(=O)NC4CC4)c3)cc12
< 1 | COc1ccccc1-c1n[nH]c2ncc(-c3ccc(C(=O)NC4CC4)cc3)cc12
< 1 | c1ccc(-c2n[nH]c3ncc(-c4cccnc4)cc23)cc1
< 1 | COc1ccccc1-c1n[nH]c2ncc(-c3cccc(C(=O)N4CCN(C)CC4)c3)cc12
< 1 | O=C(c1cccc(-c2cnc3[nH]nc(-c4cccc5cccnc45)c3c2)c1)N1CCOCC1
< 1 | CCN1CCN(C(=O)c2cccc(-c3cnc4[nH]nc(-c5cc(F)ccc5OC)c4c3)c2)CC1
< 1 | COc1ccccc1-c1n[nH]c2ncc(-c3ccc(O)c(C(=O)N4CCOCC4)c3)cc12
< 1 | CCc1ccccc1-c1n[nH]c2ncc(-c3cccc(C(=O)N4CCOCC4)c3)cc12
< 1 | COc1ccccc1-c1n[nH]c2ncc(-c3ccc(C(=O)N4CCOCC4)cc3)cc12
< 1 | Oc1cccc(-c2cnc3[nH]nc(-c4ccccc4)c3c2)c1
< 1 | COc1cc(-c2cnc3[nH]cc(-c4ccc(C)cc4)c3n2)ccc1O
< 1 | COc1ccccc1-c1n[nH]c2ncc(Br)cc12
< 1 | COc1ccccc1-c1n[nH]c2ncc(-c3cccc(C(=O)N4CCCC4)c3)cc12
< 1 | COc1ccccc1-c1n[nH]c2ncc(-c3cccc(C(=O)N4CCN(CCN(C)C)CC4)c3)cc12
1 to 10 | COc1ccccc1-c1n[nH]c2ncc(-c3ccc(C(=O)N4CCCCC4)cc3)cc12
< 1 | CCOc1ccccc1-c1n[nH]c2ncc(-c3cccc(C(=O)N4CCOCC4)c3)cc12

IC50 [µM] | Compound
< 1 | COc1ccccc1-c1n[nH]c2ncc(-c3ccc(C(=O)N4CCCC4)cc3)cc12
< 1 | COc1cc(-c2cnc3[nH]nc(-c4ccccc4)c3c2)ccc1O
< 1 | COc1ccccc1-c1n[nH]c2ncc(-c3cccc(C(=O)N4CCC(CO)CC4)c3)cc12
< 1 | COc1c(F)cccc1-c1n[nH]c2ncc(-c3cccc(C(=O)N4CCOCC4)c3)cc12
< 1 | Cc1cc(F)ccc1-c1n[nH]c2ncc(-c3cccc(C(=O)N4CCOCC4)c3)cc12
< 1 | COc1ccccc1-c1n[nH]c2ncc(-c3cccc(C(=O)N(C)C)c3)cc12
< 1 | COc1ccccc1-c1n[nH]c2ncc(-c3ccc(C(=O)N4CCN(C)CC4)cc3)cc12
< 1 | c1ccc(-c2n[nH]c3ncc(-c4ccc5[nH]ccc5c4)cc23)cc1
< 1 | COc1ccccc1-c1n[nH]c2ncc(-c3cccc(C(=O)NC(C)C)c3)cc12
< 1 | COc1ccccc1-c1n[nH]c2ncc(-c3cccnc3)cc12
< 1 | COc1ccccc1-c1n[nH]c2ncc(-c3cnc4[nH]n(C)c(=O)c4c3)cc12
< 1 | Cn1ccc2cc(-c3n[nH]c4ncc(-c5cccc(C(=O)N6CCOCC6)c5)cc34)ccc21
< 1 | COc1ccccc1-c1cnc2[nH]nc(-c3ccccc3OC)c2c1
< 1 | COc1ncc(-c2n[nH]c3ncc(-c4cccc(C(=O)N5CCOCC5)c4)cc23)c(OC)n1
< 1 | Cc1ccsc1-c1n[nH]c2ncc(-c3cccc(C(=O)N4CCOCC4)c3)cc12
< 1 | O=C(c1cccc(-c2cnc3[nH]nc(-c4ccc5cc[nH]c5c4)c3c2)c1)N1CCOCC1
< 1 | COc1ccccc1-c1c[nH]c2ncc(-c3cccc(C(=O)N(C)C)c3)nc12
